In ChEMBL document CHEMBL5335778, “Bench-to-bedside: Innovation of small molecule anti-SARS-CoV-2 drugs in China” (Eur J Med Chem, 2023) one finds EC50 data, which are given here for 14 compounds.

Broadly, the EC50 is the concentration giving half of the maximal effect.

The structures appear in SMILES notation.

In the first assay the test system is SARS-CoV-2. The assay is described as follows: Antiviral activity against SARS-CoV-2 Omicron BA1 variant infected in human A549-ACE2 cells assessed as reduction in viral load measured upto 4 days by viral plaque assay. It is filed as functional, organism-based. To be noted: Severe acute respiratory syndrome coronavirus 2, A549-ACE2, 96 h.
As for `COc1ccc2cc1Oc1ccc(cc1)C[C@H]1c3c(cc4c(c3Oc3cc5c(cc3OC)CCN(C)[C@@H]5C2)OCO4)CCN1C` [CEPHARANTHINE], the concentration giving a half-maximal response (EC50) turned out to be 100 nM.

The next assay has as its system SARS-CoV-2. The assay is described as follows: Antiviral activity against SARS-CoV-2 Omicron BA1 variant infected human A549-ACE2 cells assessed as inhibition of viral replication. Format: functional, organism-based. To be noted: Severe acute respiratory syndrome coronavirus 2, Omicron BA1, A549-ACE2.
For the compound `Br.[2H]c1cc([C@]2(C#N)O[C@H](COC(=O)C(C)C)[C@@H](OC(=O)C(C)C)[C@H]2OC(=O)C(C)C)n2ncnc(N)c12` [DEUREMIDEVIR HYDROBROMIDE], the EC50 came to 300 nM.

In a further assay the test system is SARS-CoV-2. As to the kind of experiment: Antiviral activity against SARS-CoV-2 variant Omicron BA.2 infected in African green monkey Vero E6 cells assessed as reduction in virus-induced cytopathic effect. Format: functional, organism-based. To be noted: Severe acute respiratory syndrome coronavirus 2, Omicron BA.2, Vero C1008. In general terms: Cytopathic effects are the visible damage that an infection or toxin causes in cultured cells.
As for `C[C@H](OC(C)(C)C)[C@H](NC(=O)OCc1ccccc1)C(=O)N[C@@H](CC1CCCCC1)C(=O)N[C@H](C=O)C[C@@H]1CCNC1=O`, the EC50 came to 21.7 nM. In the case of `CC(C)C[C@H](NC(=O)OCc1ccccc1)C(=O)N[C@@H](C[C@@H]1CCNC1=O)C(O)S(=O)(=O)O` (some centres undefined), the EC50 was 21.7 nM. Turning to `N#Cc1ccccc1-c1cc(-c2cc(Cl)cc(OCC3CC3)c2)c(=O)n(-c2cccnc2)c1`, the EC50 is 17.1 nM. With `CC(C)(C)OC(=O)Nc1cccn([C@@H](CC2CC2)C(=O)N[C@@H](C[C@@H]2CCNC2=O)C(=O)C(=O)NCc2ccccc2)c1=O`, the concentration giving a half-maximal response (EC50) turned out to be 17.1 nM. Same read-out and setting: as for `C[C@H](NC(=O)[C@@H](c1cccnc1)N(C(=O)C(Cl)Cl)c1ccc(-c2ccccc2)cc1)c1ccccc1`, the figure is 21.7 nM; as for `CC(C)C[C@H](NC(=O)c1cc2c(F)cccc2[nH]1)C(=O)NN(C[C@@H]1CCNC1=O)C(=O)[C@@H](F)Cl`, 17.1 nM. For the compound `COc1cccc2[nH]c(C(=O)N[C@@H](CC(C)C)C(=O)N[C@@H](C[C@@H]3CCCNC3=O)C(=O)COC(=O)c3c(C(F)(F)F)cccc3C(F)(F)F)cc12`, the EC50 came out at 21.7 nM. Take `C[C@H](NC(=O)[C@@H](c1cccnc1)N(C(=O)c1ccco1)c1ccc(-c2ccccc2)cc1)c1ccccc1`: the EC50 came out at 21.7 nM. As to `CSc1ccc2c(c1)NC(=O)C(F)(F)C2=O`, the EC50 was found to be 17.1 nM. For `O=C1N(c2cncc3ccccc23)CNC12CC(c1ccccc1Cl)C2` (centres undefined), the concentration for a half-maximal effect (EC50) was 17.1 nM. As for `CC(C)C[C@H](NC(=O)OCC1C[C@H]2CCC[C@@H](C1)C2)C(=O)N[C@H](C=O)C[C@@H]1CCNC1=O` (some centres undefined), the EC50 was found to be 21.7 nM.

Turning to `COc1cccc2[nH]c(C(=O)N[C@@H](CC(C)C)C(=O)N[C@@H](C[C@@H]3CCNC3=O)C(=O)CO)cc12` [PF-00835231], the 50% effective concentration (EC50) was 21.7 nM.
